Measured values: ChEMBL document CHEMBL1129226, “Synthesis of conformationally restricted progestational 13-ethylsteroids” (1997)

System: Oryctolagus cuniculus
Experiment: In vivo activity using McPhail test after oral dose
Type: functional

| Compound | ED2 |
| --- | --- |
| C#C[C@]1(O)C=CC2C3CCC4=CC(=O)CCC4C3CCC21CC (stereo partly drawn) | 0.008 mg/kg |
| C#C[C@]1(O)CCC2C3CCC4=CC(=O)CCC4C3[C@H]3CC(=C)[C@]21C3 (stereo partly drawn) | 1 mg/kg |
| C#C[C@]1(O)CCC2C3CCC4=CC(=O)CCC4C3[C@H]3C[C@H](C)[C@]21C3 (stereo partly drawn) | ~0.032 mg/kg |
| C#C[C@]1(O)CCC2C3CCC4=CC(=O)CCC4C3CCC21CC (stereo partly drawn) | 0.04 mg/kg |
| C1=C2CC3(CCC2C2C(C1)C1CCC4(OCCO4)[C@@]14C[C@@H]2C[C@]41CO1)OCCO3 (stereo partly drawn) | >4 mg/kg |
| C#C[C@]1(O)CCC2C3CCC4=CC(=O)CCC4C3C(=C)CC21CC (stereo partly drawn) | 0.015 mg/kg |
| C#C[C@]1(O)CCC2C3CCC4=CC(=O)CCC4C3[C@H]3C[C@@H](C)[C@]21C3 (stereo partly drawn) | 0.125 mg/kg |
| C#C[C@]1(O)CC[C@H]2[C@@H]3CCC4=CC(=O)CC[C@@H]4[C@H]3CC[C@@]21C [NORETHINDRONE] | ~0.5 mg/kg |
